Source: publication PMC5712521, “Dendrogenin A drives LXR to trigger lethal autophagy in cancers” (Nature Communications, 2017)

Experiments:
B16F10 cells [1] = assay: DDA-induced cytotoxicity (cell death); assay type: cell-based; conditions: Mus musculus, B16-F10, 72 h, read-out: Cytotox EC50
Method: (§1) Melanoma cells were seeded into 6-well plates at 60,000 cells per well and AML cells at 250,000 cells/ml. The cells were then treated with control solvent vehicle (1/1000 ethanol in water) or DDA. Where indicated, treated cells were incubated in the presence or absence of each inhibitor for time shown. Cell death was determined by the trypan blue exclusion assay. Cells were scraped and resuspended in trypan blue solution (0.25% (w/v) in PBS) and counted in a Malassez cell under light microscopy. Cell viability was then quantified by counting viable (trypan blue-negative) and dead cells (trypan blue-positive).
(§2) Supplementary Fig. 1. a DDA inhibited m elanom a colony form ation. Melanom a cells were […]
(§3) a 0.5% solution of crystal violet in water and analyzed by microscopy. Images are representative of 5 independent experiments. b Evaluation of DDA-induced cytotoxicity (cytotox) and clonogenicity (clono) inhibition in a subset of human (H) and mouse (M) m elanom a cell lines. T he BRaf status in m elanom a cells lines is shown. […]

SKMEL-28 cells [2] = assay: DDA-induced cytotoxicity (cell death); assay type: cell-based; conditions: Homo sapiens, SK-MEL-28; SKMEL-28 (H), BRaf V600E; 72 h; read-out: Cytotox EC50
Method: as §1, §2, §3

B16F10 cells [3] = assay: RT-qPCR of LXR-responsive genes; assay type: cell-based, mouse; conditions: 8 h, 2.5 µM DDA, 10 µM 22(R)HC, 1 µM GW, 100 nM TO, vs vehicle
Method: (§4) Total RNA was extracted from tumor cells or MEFs using an RNA Extraction kit (Qiagen) or Trizol (Invitrogen), respectively, and was quantified with NanoDrop. Complementary DNA (cDNA) synthesis was performed with 1 μg RNA iScript Reverse Transcriptase (Bio-Rad). 25 ng cDNA was amplified using SyBR Supermix (Bio-Rad). RNA expression of the different genes of interest (Supplementary Tables 1, 2) were determined using the ΔΔCT method, where the difference in the threshold cycle (ΔCT) values of the target gene and the housekeeping gene for each sample was normalized to the ΔCT value of the untreated sample.
(§5) Supplementary Fig. 4. a R egulat ion of LXR-responsive genes b y D DA and other k nown LXR
(§6) ligands in B16F10 and SKMEL- 28 cells transfected with s iRN A targeting LXRβ ( siLXRβ) or
(§7) with contro l siRN A scram ble (siSC). Cells were treated for 8 h with either solvent vehicle, 2.5
(§8) µM DD A, 10 µM 22(R) hydrox ycholesterol (22(R)HC), 1 µM GW 3965 (GW ) or 100 nM
(§9) T O901317 (T O). […]

SKMEL-28 cells [4] = assay: RT-qPCR of LXR-responsive genes; assay type: cell-based, human; conditions: 8 h, 2.5 µM DDA, 10 µM 22(R)HC, 1 µM GW, 100 nM TO, vs vehicle
Method: as §4, §5, §6, §7, §8, §9

HL60 cells = assay: qRT-PCR of Nur77 and NOR1; assay type: cell-based, human; conditions: HL60, 24 h; 5 µM DDA, 2 µM TO, 2 µM GW, 10 µM 22(R)HC
Method: as §4
(§10) Supplementary Fig. 6. […]
(§11) D ata are expressed relative to the control (solvent vehic le). D ata from b, f, g, h, j, p, q ar e the m eans ± S.E.M. of 3 independent experiments performed in triplicate (*P<0.05, **P<0.01, ***P<0.001, t test). Images are representative of 3 independent experim ents.

KG1 cells = assay: qRT-PCR of Nur77 and NOR1; assay type: cell-based, human; conditions: KG1, 24 h; 5 µM DDA, 2 µM TO, 2 µM GW, 10 µM 22(R)HC
Method: as §4, §10, §11

CC(C)CCC[C@@H](C)[C@H]1CC[C@H]2[C@@H]3C[C@@H](NCCc4cnc[nH]4)[C@@]4(O)C[C@@H](O)CC[C@]4(C)[C@H]3CC[C@]12C [DDA, Dendrogenin A]
EC50 (B16F10 cells [1]): 700 ± 100 nM
EC50 (SKMEL-28 cells [2]): 2100 ± 200 nM
ABCA1 mRNA (B16F10 cells [3]; B16F10, siCT): 0.4±0.1 fold
ABCG1 mRNA (B16F10 cells [3]; B16F10, siCT): 1.4±0.1 fold
ABCG5 mRNA (B16F10 cells [3]; B16F10, siCT): 3.5±0.1 fold
ABCG8 mRNA (B16F10 cells [3]; B16F10, siCT): 1.6±0.2 fold
LC3A mRNA (B16F10 cells [3]; B16F10, siCT): 2.4±0.2 fold
LC3B mRNA (B16F10 cells [3]; B16F10, siCT): 1.7±0.1 fold
LDLR mRNA (B16F10 cells [3]; B16F10, siCT): 4.2±0.2 fold
NOR1 mRNA (B16F10 cells [3]; B16F10, siCT): 4.6±0.1 fold
Nur77 mRNA (B16F10 cells [3]; B16F10, siCT): 6.8±0.2 fold
SCD1 mRNA (B16F10 cells [3]; B16F10, siCT): 1.6±0.2 fold
SREBP1 mRNA (B16F10 cells [3]; B16F10, siCT): 0.9±0.1 fold
SULT2b1b mRNA (B16F10 cells [3]; B16F10, siCT): 1.6±0.1 fold
ABCA1 mRNA (B16F10 cells [3]; B16F10, siLXRβ): 1.2±0.1 fold
ABCG1 mRNA (B16F10 cells [3]; B16F10, siLXRβ): 0.9±0.1 fold
ABCG5 mRNA (B16F10 cells [3]; B16F10, siLXRβ): 1.0±0.1 fold
ABCG8 mRNA (B16F10 cells [3]; B16F10, siLXRβ): 1.2±0.1 fold
LC3A mRNA (B16F10 cells [3]; B16F10, siLXRβ): 0.9±0.2 fold
LC3B mRNA (B16F10 cells [3]; B16F10, siLXRβ): 1.0±0.2 fold
LDLR mRNA (B16F10 cells [3]; B16F10, siLXRβ): 1.0±0.1 fold
NOR1 mRNA (B16F10 cells [3]; B16F10, siLXRβ): 0.3±0.2 fold
Nur77 mRNA (B16F10 cells [3]; B16F10, siLXRβ): 0.4±0.1 fold
SCD1 mRNA (B16F10 cells [3]; B16F10, siLXRβ): 0.9±0.2 fold
SREBP1 mRNA (B16F10 cells [3]; B16F10, siLXRβ): 0.9±0.2 fold
SULT2b1b mRNA (B16F10 cells [3]; B16F10, siLXRβ): 0.8±0.1 fold
ABCA1 mRNA (SKMEL-28 cells [4]; SKMEL-28, siCT): 0.4±0.1 fold
ABCG1 mRNA (SKMEL-28 cells [4]; SKMEL-28, siCT): 1.0±0.1 fold
ABCG5 mRNA (SKMEL-28 cells [4]; SKMEL-28, siCT): 3.9±0.4 fold
ABCG8 mRNA (SKMEL-28 cells [4]; SKMEL-28, siCT): 0.2±0.1 fold
LC3A mRNA (SKMEL-28 cells [4]; SKMEL-28, siCT): 1.7±0.2 fold
LC3B mRNA (SKMEL-28 cells [4]; SKMEL-28, siCT): 1.6±0.1 fold
LDLR mRNA (SKMEL-28 cells [4]; SKMEL-28, siCT): 3.2±0.3 fold
NOR1 mRNA (SKMEL-28 cells [4]; SKMEL-28, siCT): 4.8±0.2 fold
Nur77 mRNA (SKMEL-28 cells [4]; SKMEL-28, siCT): 8.2±0.2 fold
SCD1 mRNA (SKMEL-28 cells [4]; SKMEL-28, siCT): 2.2±0.2 fold
SREBP1 mRNA (SKMEL-28 cells [4]; SKMEL-28, siCT): 0.9±0.2 fold
SULT2B1b mRNA (SKMEL-28 cells [4]; SKMEL-28, siCT): 2.9±0.1 fold
ABCA1 mRNA (SKMEL-28 cells [4]; SKMEL-28, siLXRβ): 0.9±0.1 fold
ABCG1 mRNA (SKMEL-28 cells [4]; SKMEL-28, siLXRβ): 0.8±0.2 fold
ABCG5 mRNA (SKMEL-28 cells [4]; SKMEL-28, siLXRβ): 1.1±0.2 fold
ABCG8 mRNA (SKMEL-28 cells [4]; SKMEL-28, siLXRβ): 0.7±0.2 fold
LC3A mRNA (SKMEL-28 cells [4]; SKMEL-28, siLXRβ): 0.8±0.2 fold
LC3B mRNA (SKMEL-28 cells [4]; SKMEL-28, siLXRβ): 0.9±0.3 fold
LDLR mRNA (SKMEL-28 cells [4]; SKMEL-28, siLXRβ): 1.8±0.2 fold
NOR1 mRNA (SKMEL-28 cells [4]; SKMEL-28, siLXRβ): 1.0±0.1 fold
Nur77 mRNA (SKMEL-28 cells [4]; SKMEL-28, siLXRβ): 1.2±0.2 fold
SCD1 mRNA (SKMEL-28 cells [4]; SKMEL-28, siLXRβ): 1.2±0.1 fold
SREBP1 mRNA (SKMEL-28 cells [4]; SKMEL-28, siLXRβ): 1.0±0.3 fold
SULT2B1b mRNA (SKMEL-28 cells [4]; SKMEL-28, siLXRβ): 1.1±0.2 fold
NOR1 mRNA levels (Fold over control) (HL60 cells): 6.3 fold
Nur77 mRNA levels (Fold over control) (HL60 cells): 11.2 fold
NOR1 mRNA levels (Fold over control) (KG1 cells): 12.2 fold
Nur77 mRNA levels (Fold over control) (KG1 cells): 8.8 fold
